What is called IC50 is the concentration that gives 50% inhibition.

A value given as a limit tells only on which side of the number the result lay.

The test deals with T1, galectin-3 (Homo sapiens, UniProt P17931).
T1 construct: purchased IBL IBATGP0414
T1 sequence (P17931 whole entry): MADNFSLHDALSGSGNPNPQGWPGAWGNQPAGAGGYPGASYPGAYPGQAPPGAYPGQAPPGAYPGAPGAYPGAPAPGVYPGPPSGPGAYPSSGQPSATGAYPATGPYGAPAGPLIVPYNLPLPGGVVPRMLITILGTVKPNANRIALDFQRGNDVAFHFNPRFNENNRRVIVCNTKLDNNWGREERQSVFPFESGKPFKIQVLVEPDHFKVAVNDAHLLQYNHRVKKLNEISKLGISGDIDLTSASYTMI
Description: Galectin-3 Activity ELISA assay: inhibition of binding of galectin-3 to a Galβ1-3GlcNAc carbohydrate structure. As to conditions: galectin-3 binding to immobilized Galβ1-3GlcNAc polymer, A450 readout, read-out: IC50 Galectin-3 Antagonist Activity. As to the method:
Galectin-3 antagonists were evaluated for their ability to inhibit binding of galectin-3 to a Galβ1-3GlcNAc carbohydrate structure. The detailed protocol was as follows. A 1 ug/mL suspension of a Galβ1-3GlcNAcβ1-3Galβ1-4GcNAcβ-PAA-biotin polymer (Glycotech, catalog number 01-096) was prepared. A 100 uL aliquot of the polymer was added to the wells of a 96-well streptavidin-coated plate (R&D Systems, catalog number CP004). A 100 uL aliquot of IX Tris Buffered Saline (TBS, Sigma, catalog number T5912-10×) was added to control wells. The polymer was allowed to bind to the streptavidin-coated wells for 1.5 hours at room temperature. The contents of the wells were discarded and 200 uL of 1×TBS containing 1% bovine serum albumin (BSA) was added to each well as a blocking reagent and the plate was kept at room temperature for 30 minutes. The wells were washed three times with IX TBS containing 0.1% BSA. A serial dilution of test compounds was prepared in a separate V-bottom plate (Corning, catalog number 3897). A 75 uL aliquot of the highest concentration of the compound to be tested was added to the first well in a column of the V-bottom plate then 15 ul were serially transferred into 60 uL IX TBS through the remaining wells in the column to generate a 1 to 5 serial dilution. A 60 uL aliquot of 2 ug/mL galectin-3 (IBL, catalog number IBATGP0414) was added to each well in the V-bottom plate. A 100 uL aliquot of the galectin-3/test compound mixture was transferred from the V-bottom plate into the assay plate containing the Galβ1-3GlcNAc polymer. Four sets of control wells in the assay plate were prepared in duplicate containing 1) both Galβ1-3GlcNAc polymer and galectin-3, 2) neither the polymer nor galectin-3, 3) galectin-3 only, no polymer, or 4) polymer only, no galectin-3. The plate was gently rocked for 1.5 hours at room temperature. The wells were washed four times with TBS/0.1% BSA. A 100 uL aliquot of anti-galectin-3 antibody conjugated to horse radish peroxidase (R&D Systems, from DGAL30 kit) was added to each well and the plate was kept at room temperature for 1 hour. The wells were washed four times with TBS/0.1% BSA. A 100 uL aliquot of TMB substrate solution was added to each well. The TMB substrate solution was prepared by making a 1:1 mixture of TMB Peroxidase Substrate (KPL, catalog number 5120-0048) and Peroxidase Substrate Solution B (KPL, catalog number 5120-0037). The plate was kept at room temperature for 10 to 20 minutes. The color development was stopped by adding 100 uL 10% phosphoric acid (RICCA Chemical Co., catalog number 5850-16). The absorbance at 450 nm (A450) was measured using a FlexStation 3 plate reader (Molecular Devices). Plots of A450 versus test compound concentration and IC50 determinations were made using GraphPad Prism 6.
On the technique in general: ELISA stands for enzyme-linked immunosorbent assay.
Regarding `COC(=O)[C@@H](OCc1ccccc1)[C@@H]1OC(CO)[C@H](O)C(n2cc(-c3cc(F)c(F)c(F)c3)nn2)C1O` (stereo partly shown) [Compound 13], the IC50 came out at 3480 nM.
Turning to `CNC(=O)[C@@H](OCc1ccc2ccccc2c1)[C@@H]1OC(CO)[C@H](O)C(n2cc(-c3cc(F)c(F)c(F)c3)nn2)C1O` (stereo partly shown) [Compound 16], the IC50 came out at 530 nM.
Regarding `CNC(=O)[C@@H](OCc1cccc(-c2ccccc2)c1)[C@@H]1OC(CO)[C@H](O)C(n2cc(-c3cc(F)c(F)c(F)c3)nn2)C1O` (stereo partly shown) [Compound 17], the IC50 came out at 2560 nM.
Turning to `CNC(=O)[C@@H](OCc1cccc(C(=O)OC)c1)[C@@H]1OC(CO)[C@H](O)C(n2cc(-c3cc(F)c(F)c(F)c3)nn2)C1O` (stereo partly shown) [Compound 18], the IC50 was 670 nM.
As for `CNC(=O)[C@@H](OCc1ccc(Cl)cc1)[C@@H]1OC(CO)[C@H](O)C(n2cc(-c3cc(F)c(F)c(F)c3)nn2)C1O` (stereo partly shown) [Compound 19], the IC50 amounted to 320 nM.
As for `CNC(=O)[C@@H](OCc1cccc(Cl)c1)[C@@H]1OC(CO)[C@H](O)C(n2cc(-c3cc(F)c(F)c(F)c3)nn2)C1O` (stereo partly shown) [Compound 20], the half-inhibitory concentration (IC50) was found to be 1520 nM.
Regarding `CNC(=O)[C@@H](OCc1cccc(OC(F)(F)F)c1)[C@@H]1OC(CO)[C@H](O)C(n2cc(-c3cc(F)c(F)c(F)c3)nn2)C1O` (stereo partly shown) [Compound 21], the IC50 stood at 1940 nM.
Take `CNC(=O)[C@@H](OCc1ccc(F)cc1)[C@@H]1OC(CO)[C@H](O)C(n2cc(-c3cc(F)c(F)c(F)c3)nn2)C1O` (stereo partly shown) [Compound 24]: the concentration for half-maximal inhibition (IC50) worked out at 1720 nM.
Turning to `CNC(=O)[C@@H](OCc1ccc(F)c(F)c1)[C@@H]1OC(CO)[C@H](O)C(n2cc(-c3cc(F)c(F)c(F)c3)nn2)C1O` (stereo partly shown) [Compound 25], the IC50 amounted to 1080 nM.
Consider `CNC(=O)[C@@H](OCc1ccc(C(F)(F)F)cc1)[C@@H]1OC(CO)[C@H](O)C(n2cc(-c3cc(F)c(F)c(F)c3)nn2)C1O` (stereo partly shown) [Compound 26], for which the IC50 was 350 nM.
For the molecule `CNC(=O)[C@@H](OCc1ccc(F)c(Cl)c1)[C@@H]1OC(CO)[C@H](O)C(n2cc(-c3cc(F)c(F)c(F)c3)nn2)C1O` (stereo partly shown) [Compound 27], the IC50 was 2090 nM.
For the molecule `CNC(=O)[C@@H](OCc1ccc(S(C)(=O)=O)cc1)[C@@H]1OC(CO)[C@H](O)C(n2cc(-c3cc(F)c(F)c(F)c3)nn2)C1O` (stereo partly shown) [Compound 28], the IC50 amounted to 690 nM.
Regarding `CNC(=O)[C@@H](OCc1ccc(C(=O)OC)cc1)[C@@H]1OC(CO)[C@H](O)C(n2cc(-c3cc(F)c(F)c(F)c3)nn2)C1O` (stereo partly shown) [Compound 29], the concentration for half-maximal inhibition (IC50) came out at 4600 nM.
Take `CNC(=O)[C@@H](OCc1ccc(OC(F)(F)F)cc1)[C@@H]1OC(CO)[C@H](O)C(n2cc(-c3cc(F)c(F)c(F)c3)nn2)C1O` (stereo partly shown) [Compound 30]: the IC50 stood at 4980 nM.
For `CNC(=O)[C@@H](OCc1ccc(Cl)c(F)c1)[C@@H]1OC(CO)[C@H](O)C(n2cc(-c3cc(F)c(F)c(F)c3)nn2)C1O` (stereo partly shown) [Compound 31], the IC50 was found to be 180 nM.
Under `CNC(=O)[C@@H](OCc1ccc(OC)cc1)[C@@H]1OC(CO)[C@H](O)C(n2cc(-c3cc(F)c(F)c(F)c3)nn2)C1O` (stereo partly shown) [Compound 32] stands 2810 nM.
`CNC(=O)[C@@H](OCc1ccc(C2CC2)cc1)[C@@H]1OC(CO)[C@H](O)C(n2cc(-c3cc(F)c(F)c(F)c3)nn2)C1O` (stereo partly shown) [Compound 33]: the IC50 was determined as 1640 nM.
As to `CNC(=O)[C@@H](OCc1cccnc1)[C@@H]1OC(CO)[C@H](O)C(n2cc(-c3cc(F)c(F)c(F)c3)nn2)C1O` (stereo partly shown) [Compound 34], the half-maximal inhibitory concentration (IC50) was determined as 850 nM.
As for `CCCCNC(=O)[C@@H](OCc1ccccc1)[C@@H]1OC(CO)[C@H](O)C(n2cc(-c3cc(F)c(F)c(F)c3)nn2)C1O` (stereo partly shown) [Compound 35], the IC50 was above 100000 nM.
Regarding `CNC(=O)[C@@H](OCc1ccccc1)[C@@H]1OC(CO)[C@H](O)C(n2cc(-c3cc(F)c(F)c(F)c3)nn2)C1O` (stereo partly shown) [Compound 36], the half-inhibitory concentration (IC50) amounted to 3860 nM.
`CNC(=O)[C@@H](OCc1ccccc1)[C@@H]1OC(CO)[C@H](O)[C@H](n2cc(-c3cc(F)c(F)c(F)c3)nn2)C1OC` (stereo partly shown) [Compound 40]: the IC50 was 2610 nM.
Under `COC1[C@H]([C@H](OCc2ccccc2)C(=O)N(C)C)OC(CO)[C@H](O)[C@@H]1n1cc(-c2cc(F)c(F)c(F)c2)nn1` (stereo partly shown) [Compound 41] stands 9580 nM.
As for `COC1C(n2cc(-c3cc(F)c(F)c(F)c3)nn2)[C@@H](O)C(CO)O[C@H]1[C@H](OCc1ccc(Cl)cc1)C(=O)N(C)C` (stereo partly shown) [Compound 42], the 50% inhibitory concentration (IC50) turned out to be 2060 nM.
Take `COC1C(n2cc(-c3cc(F)c(F)c(F)c3)nn2)[C@@H](O)C(CO)O[C@H]1[C@H](OCc1ccc(Cl)cc1)C(=O)Nc1ccccc1F` (stereo partly shown) [Compound 69]: the IC50 stood at 230 nM.
In the case of `COC1C(n2cc(-c3cc(F)c(F)c(F)c3)nn2)[C@@H](O)C(CO)O[C@H]1[C@H](OCc1ccc(Cl)cc1)C(=O)NCC(F)(F)F` (stereo partly shown) [Compound 70], the IC50 worked out at 720 nM.

For the origin of these results see patent US11873317B2, “Galectin-3 inhibiting c-glycosides” (GLYCOMIMETICS, INC., priority 2018, dated 2024).
